Results as given in BigSolDB 2.1.

CC1=CC(=O)[N-]S(=O)(=O)O1.[K+]
Conditions	solubility (mole fraction)
in ethanol, 277.1 K	0.000123
in ethanol, 282.39 K	0.000154
in ethanol, 287.47 K	0.000176
in ethanol, 292.3 K	0.0002
in ethanol, 297.55 K	0.000226
in ethanol, 302.65 K	0.000259
in ethanol, 307.9 K	0.0003
in ethanol, 312.93 K	0.000396
in ethanol, 317.87 K	0.000496
in ethanol, 322.9 K	0.000634
in methanol, 277.7 K	0.000156
in methanol, 281.79 K	0.000173
in methanol, 286.1 K	0.000189
in methanol, 290.39 K	0.000205
in methanol, 294.2 K	0.000222
in methanol, 298.51 K	0.000238
in methanol, 302.21 K	0.000256
in methanol, 307.8 K	0.000288
in methanol, 311.39 K	0.000313
in methanol, 315.47 K	0.000341
in methanol, 319.3 K	0.000371
in methanol, 322.8 K	0.000401
in water, 277.98 K	0.000151
in water, 281.23 K	0.000167
in water, 284.73 K	0.000186
in water, 288.35 K	0.000207
in water, 294.9 K	0.000249
in water, 298.02 K	0.000271
in water, 301.03 K	0.000292
in water, 304.01 K	0.000314
in water, 307.07 K	0.000338
in water, 310.24 K	0.000363
in water, 313.53 K	0.00039
in water, 317.3 K	0.000419
in water, 322.3 K	0.000474
